Measurements reported in article PMC9410094 (Marine Drugs, 2022).
In brackets after ≈: the same amount, converted by molar mass. Positions of bridges follow the written chain, without caps; N, C: chain ends. Residues, ends and D or L forms follow the SMILES beside them.

How the values were obtained:
Gram-positive bacteria = assay type: cell-based; conditions: 24 h
Summary of the method: (§1)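 Broth microdilution, MHB + 0.9% NaCl. Inoculum: OD600 1.0 culture diluted to 10^6 CFU/mL; peptides in 0.1% BSA, 1:1 mix. 24 h, 37 °C, shaking 950 rpm. MIC = no visible growth; median of 3 experiments in triplicate.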

[1] = RP-HPLC retention time as measure of hydrophobicity; assay type: physicochemical; conditions: chromatographic, semipreparative RP-HPLC, C18 column, linear gradient 5 to 80% (v/v) acetonitrile in water with 0.1% TFA within 50 minutes; used as measure of hydrophobicity
Gram-negative bacteria = experiment: Geometric mean of MICs, Gram-negative panel; assay type: cell-based; conditions: geometric mean (GM) of MICs against the 14 Gram-negative strains of Figure 2
Summary of the method: as §1

E. coli ML-35p = test system: E. coli ML-35p
Method: Initially, antimicrobial activity of abarenicin and UuBRI-21 was evaluated against the reference strain of E. coli (ML-35p) under various conditions (Table 1). Minimal inhibitory concentrations (MICs) were determined via two-fold serial dilutions in 96-well polystyrene plates. Serial dilutions were made in 0.1% bovine serum albumin (BSA) to minimize the absorption of peptides on the surface of plate wells. Mueller–Hinton broth (MHB) supplemented with 0.9% NaCl was used as the standardized medium.
Bacterial cultures were grown in MHB at 37 °C until the culture reached an optical density OD600 of 1.0 and diluted with the broth so that to reach a final cell concentration of 10^6 CFU/mL. Then 50 μL of the test culture were added to 50 μL of aqueous solutions of the peptides, previously diluted in 0.1% sterilized bovine serum albumin (BSA) to reduce non-specific binding of the peptides to the surface of the plates. Next, the plate was incubated for 24 h at 37 °C and 950 rpm on the plate thermoshaker (Biosan). The values of the minimum inhibitory concentrations (MIC) were determined as the minimum concentration of the peptide, at which there is no culture growth. The results were expressed as the median values of three independent experiments performed in triplicate.

in vitro = conditions: male, human, 25% fresh human serum, pH 7.4
Method: After incubation, serum proteins were selectively precipitated from the mixture by adding 10% TFA in the presence of 3 M urea. […] Two independent experiments in duplicate were performed for each peptide.

E. coli ATCC 25922 = assay type: cell-based; conditions: MHB + 0.9% NaCl, 0.1% BSA, 24 h, 37 °C; median of three independent experiments
human red blood cells = assay type: cell-based
Summary of the method: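 Erythrocytes from a healthy donor were washed in PBS pH 7.4, and an 8% (v/v) suspension was incubated with peptides in 0.1% BSA for 1.5 h at 37 °C with shaking. Hemoglobin release was read at 405 nm. Hemolysis % was normalised to PBS (zero lysis) and 0.1% Triton X-100 (100% lysis).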

E. coli MDR Cl 1057 = experiment: Resistance induction by serial passages; assay type: cell-based; conditions: E. coli MDR Cl 1057, 0.9% NaCl-enriched Mueller–Hinton medium
Method: One of them involves a series passage with suspension of a test strain and liquid medium containing an antibacterial agent at concentrations near the MIC, which progressively increases during the experiment until resistant mutants are enriched. Bacteria that grew at the highest concentration of drug are used in the final step of the test that determines the final MIC value [18].
The ability of peptides to induce bacterial resistance was assessed by the method of two-fold serial dilutions; this test was repeated every day. […] Next, on the second day, 2 μL of the bacterial suspension was taken from the well containing the sub-inhibitory concentration of the drug as close as possible to the MIC and diluted with 1 mL of the same media.

[2] = test system: P. aeruginosa PAO1 mature biofilms; experiment: Effect on mature biofilms, viability by MTT; conditions: P. aeruginosa PAO1 pre-formed biofilm, 16 µM, 2-h exposure
Method: Biofilm viability was measured by tetrazolium salt reduction (right panel). Values are presented as means ± the standard deviation (SD) of three independent experiments.
The effect of peptides on pre-formed biofilms was evaluated as follows. Biofilms were grown on a 96-well plate at 32 °C for 24 h and stirred at 120 rpm to ensure biofilm formation primarily on the wall of the wells. […] Bacterial survival in the biofilms after 2-h exposure was evaluated via a MTT assay after incubation with a tested peptide. Then, wells were rinsed with sterile water, treated with an MTT solution (Sigma, Kawasaki, Kanagawa, Japan) in PBS, and incubated for 4 h at 37 °C. Next, the medium was removed. The resulting formazan crystals were dissolved in a mixture of EtOH and DMSO (1:1) for 10 min. The optical density of the solution was measured at 570 nm. Bacterial survival was calculated as percent relative to samples without antimicrobial agent. All data were obtained from at least three independent experiments in 3 repetitions.

P. aeruginosa PAO1 = experiment: Inhibition of biofilm formation, crystal violet; assay type: cell-based; conditions: 24 h, LB, 32 °C
Text: Such an adaptive and survival mechanism is mediated by biofilms, which constitutes the community of sessile bacteria embedded within the self-produced extracellular polymeric substance (EPS) that defends them from chemical, biological, and physical stress; it also […] foreign invaders. Besides the fact that EPS decreases concentration of antibiotics, bacteria inside biofilm are characterized by a reduced rate of cell divisions, an increased expression of stress response genes, an occurrence of persistent cells, and exchange of resistance genes leading to a broader spread of tolerant biofilm-growing bacteria. For the treatment of biofilm-associated infections a high concentration of antibiotics is required that also increases toxicity toward human cells. Antimicrobial peptides are able to act on certain stages of biofilm formation and various molecular targets and are considered as promising candidates for the development of new antibiofilm agents. […] Bacterial biomass amount was evaluated using the standard crystal violet assay over a 24 h incubation period with each drug. […]
Masses of biofilms were evaluated by dying with 0.1% CV. […]
The ability of peptides to influence the formation of biofilms was evaluated by the method of two-fold serial dilutions in a liquid nutrient medium. […] Further, the extracts were transferred to a new plate and absorption was measured at 570 nm. […]

E. coli 3421/E19 = experiment: Neutropenic mice peritonitis model; assay type: in vivo, BALB/c mice; conditions: neutropenic BALB/c mice, CFU 5 h after treatment
Method: Immune-deficient mice were inoculated intraperitoneally (i.p.) with bacterial suspension. Antimicrobial agent was administered 1 h post-infection, and colony counts in blood and peritoneal fluid (PF) were determined 5 h later.
(A) The mice peritonitis model. […] Horizontal bars indicate means ± SD.
Food and water were provided ad libitum.
CFU counts were determined from blood and peritoneal fluid (PF) 5 h after treatment. The mice were euthanized by CO2 asphyxiation and blood was collected by axillary cut down. A total of 2 mL sterile saline was injected i.p. and the abdomen gently massaged before it was opened, fluid sampled with a pipette, serially diluted and placed on Endo agar supplemented with 20 µg/mL of tetracycline for CFU identification.

Compound | Minimum inhibitory concentration (MIC): Gram-positive Geometric mean (Gram-positive bacteria) [µM] | RP-HPLC Retention Time [1] [min] | Minimum inhibitory concentration (MIC): Gram-negative Geometric mean (Gram-negative bacteria) [µM] | Fold reduction of antibacterial activity in the presence of serum (E. coli ML-35p; MHB + 0.9% NaCl with 25% FBS versus without) [fold] | Minimum Inhibitory Concentration, MHB + 0.9% NaCl + 25% FBS (E. coli ML-35p; Table 1, medium with 25% fetal bovine serum) [µM] | Minimum Inhibitory Concentration, MHB + 0.9% NaCl (E. coli ML-35p; Table 1, without FBS, dilutions in 0.1% BSA) [µM] | remaining at 2 h, 0.12 mg/mL (in vitro) [%] | Minimum inhibitory concentration (MIC): E. coli ATCC 25922 (E. coli ATCC 25922) [µM] | Hemolytic activity (in words) (human red blood cells) | Initial MIC in resistance induction experiment (E. coli MDR Cl 1057) [µM] | Residual viability of bacteria in mature biofilm [2] | Inhibition of biofilm formation (in words) (P. aeruginosa PAO1) | Bacterial burden in mice blood (in words) (E. coli 3421/E19; n = 5, i.p. infection, single i.v. dose 1 h post-infection (AMPs 10 mg/kg, polymyxin B 5 mg/kg)) | Reduction of the CFU level in peritoneal fluid (PF) (E. coli 3421/E19; n = 5, single i.v. dose (AMPs 10 mg/kg, polymyxin B 5 mg/kg))
CC[C@H](C)[C@@H]1NC(=O)[C@H](CCCNC(=N)N)NC(=O)[C@H](C(C)C)NC(=O)CNC(=O)[C@H](CC(N)=O)NC(=O)[C@H](CCCNC(=N)N)NC(=O)[C@H](CC(C)C)NC(=O)[C@H](Cc2ccc(O)cc2)NC(=O)[C@@H]2CSSC[C@H](NC1=O)C(=O)N[C@@H](Cc1ccc(O)cc1)C(=O)N[C@@H](CCCNC(=N)N)C(=O)N[C@@H](CCCNC(=N)N)C(=O)N[C@H](C(=O)N[C@@H](CC(N)=O)C(=O)O)CSSC[C@H](NC(=O)[C@H](Cc1ccc(O)cc1)NC(=O)CN)C(=O)N[C@@H](Cc1ccccc1)C(=O)N[C@@H]([C@@H](C)O)C(=O)N[C@@H](C)C(=O)N2 [Abarenicin] (H-GYCFTACYLRNGVRICYRRCN-OH; disulfide 3-20, 7-16) | 2.52 (≈ 6.37 µg/mL) | 25.77 | 0.45 (≈ 1.14 µg/mL) | 4 | 1 | 0.25 | > 90 | 0.25 | moderate hemolytic activity |  |  |  |  | 
polymyxin B [reference compound] |  |  |  |  |  |  |  |  |  | 0.125 | about 20% | modest inhibition of biofilm | complete reduction | ~ 5 log
